This passage reports TGI and GI50 results from PubChem BioAssay (NCI).

Some test systems named below: A549 NSCLC; HCT-116 colon; A498 renal; CAKI-1 renal; TK-10 renal; HT29 colon; M14 melanoma; HS 578T breast; DU-145 prostate; PC-3 prostate.
What all share (test): NCI tumour cell line growth inhibition, 48 h

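48-hour exposure; five concentrations; linearly interpolated endpoints. Abbreviation: GI50, concentration required for 50% inhibition of growth. The concentration for full growth arrest is given as TGI.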

Take `CSc1cc(C(C)(C)C)ccc1C(O)c1ccc(C(C)(C)C)cc1SC`: the TGI with A549 NSCLC was 24.4 µM; with HCT-116 colon it was 17.8 µM; in the experiment with A498 renal, 26.7 µM; in the experiment with CAKI-1 renal, 24.9 µM; in the experiment on TK-10 renal it was 30.6 µM; in the experiment on HT29 colon, 19.6 µM. The TGI with M14 melanoma worked out at 26.9 µM.

In the case of `CC[Si](CC)(CC)OC1[C@@H](O[Si](CC)(CC)CC)[C@@H](CNC(=O)NC)O[C@H]1n1cnc2c(NC(=O)Nc3ccccc3)ncnc21` (stereo partly specified), the GI50 was 3.14 µM in the experiment on A549 NSCLC; 3.26 µM in the experiment with HCT-116 colon; 1.61 µM in the experiment on A498 renal; 2.76 µM with CAKI-1 renal; 2.65 µM in the experiment on TK-10 renal; 2.4 µM with HT29 colon. Also, the GI50 in the experiment with M14 melanoma was 3.75 µM; with HS 578T breast, 2.66 µM; in the experiment on DU-145 prostate, 4.41 µM. Besides, the TGI in the experiment on A549 NSCLC was over 100 µM; in the experiment with HCT-116 colon, 15.2 µM; with A498 renal, 6.38 µM; in the experiment on CAKI-1 renal it was 12.2 µM; in the experiment with TK-10 renal, 9.88 µM; in the experiment with HT29 colon, 6.13 µM. Also, the TGI in the experiment on M14 melanoma was over 100 µM; in the experiment on HS 578T breast it was 39.5 µM; in the experiment on DU-145 prostate, over 100 µM.

As to `O=C(COc1cccc(/C=C2\Oc3ccc4ccccc4c3C2=O)c1)c1ccc([N+](=O)[O-])cc1`, the GI50 with A549 NSCLC was over 100 µM; in the experiment on HCT-116 colon, 16.5 µM; in the experiment on A498 renal, over 100 µM; in the experiment on CAKI-1 renal, 45.9 µM; with TK-10 renal, 37.3 µM; in the experiment with HT29 colon, 36 µM. Further, the GI50 with M14 melanoma is 18.3 µM; in the experiment with HS 578T breast, 18.2 µM; in the experiment on DU-145 prostate it was 12.1 µM. Moreover, the TGI with A549 NSCLC was over 100 µM; in the experiment on HCT-116 colon it was 40.9 µM; in the experiment on A498 renal it was over 100 µM; in the experiment on CAKI-1 renal, over 100 µM; in the experiment with TK-10 renal, over 100 µM; in the experiment on HT29 colon, over 100 µM. The results for the TGI in the experiment with M14 melanoma, in the experiment with HS 578T breast and in the experiment on DU-145 prostate were 53.4 µM, 56.1 µM and 29.3 µM, respectively.

On to `CCOP(=O)(OCC)C(NC(c1ccccc1)c1ccccc1)c1ccc(C(C)C)cc1` (stereo unspecified), for which the GI50 with A549 NSCLC is 4.84 µM; in the experiment with HCT-116 colon, 3.08 µM; with CAKI-1 renal, 3.23 µM; in the experiment on TK-10 renal, 3.32 µM; in the experiment with HT29 colon, 6.27 µM; with PC-3 prostate it was 2.9 µM. In addition, the GI50 is 2.13 µM in the experiment on M14 melanoma and 8.41 µM in the experiment with DU-145 prostate. For the same compound, the TGI in the experiment on A549 NSCLC is 23.2 µM; in the experiment on HCT-116 colon it was 11.3 µM; in the experiment on CAKI-1 renal, 13.1 µM; in the experiment with TK-10 renal, 14.4 µM; with HT29 colon, 42.1 µM; with PC-3 prostate, 13.3 µM. Besides, the TGI in the experiment with M14 melanoma came out at 4.99 µM; in the experiment on DU-145 prostate it was 25.5 µM.

For the compound `Cc1ccc(/C(=C/C=C(C#N)C#N)Sc2nc3ccccc3s2)cc1`, the GI50 in the experiment with A549 NSCLC was 19.8 µM; with HCT-116 colon it was 2.47 µM; in the experiment with A498 renal, 20.9 µM; in the experiment on CAKI-1 renal, 2.72 µM; in the experiment with TK-10 renal, 2.42 µM; with PC-3 prostate, 2.25 µM. The GI50 is 9.86 µM in the experiment on HS 578T breast and 4.18 µM in the experiment with DU-145 prostate. The TGI was found to be 45.5 µM with A549 NSCLC; 6.3 µM in the experiment with HCT-116 colon; 35.9 µM in the experiment on A498 renal; 8.35 µM in the experiment on CAKI-1 renal; 6.37 µM in the experiment on TK-10 renal; 6.52 µM with PC-3 prostate. The figures for the TGI with HS 578T breast and with DU-145 prostate were 56.1 µM and 14.5 µM, respectively.

On to `N#CC(C#N)=C1CCC2C(=C(C#N)C#N)CCC12` (stereo unspecified), for which the TGI with A549 NSCLC, in the experiment with HCT-116 colon, in the experiment on A498 renal, in the experiment with CAKI-1 renal, in the experiment with TK-10 renal and in the experiment on HT29 colon was over 100 µM each time. Besides, in the experiment on M14 melanoma, the TGI is over 100 µM.

`C/C(=N\NC(=S)N1CCN(c2ccccn2)CC1)c1cccc2cccnc12`: the TGI was over 100 µM with A549 NSCLC; 6.71 µM in the experiment with HCT-116 colon; 71.1 µM with A498 renal; over 100 µM in the experiment on CAKI-1 renal; over 100 µM with TK-10 renal; 21.2 µM in the experiment on HT29 colon. Besides, the TGI was over 100 µM in the experiment with PC-3 prostate, over 47.4 µM with M14 melanoma and over 100 µM in the experiment with HS 578T breast.

Take `CC(=O)[CH-]C(=O)c1ccccc1.CC(=O)[CH-]C(=O)c1ccccc1.CC(=O)[CH-]C(=O)c1ccccc1.[Br-].[Zr+4]`: the GI50 with A549 NSCLC is over 100 µM; in the experiment on A498 renal, 24.9 µM; in the experiment with CAKI-1 renal, 37.2 µM; in the experiment on TK-10 renal, over 100 µM; in the experiment with HT29 colon it was 48.3 µM; in the experiment on M14 melanoma, 45 µM. For the same compound, the TGI with A549 NSCLC, in the experiment on A498 renal, in the experiment on CAKI-1 renal, in the experiment on TK-10 renal, in the experiment on HT29 colon and in the experiment on M14 melanoma was over 100 µM throughout.

For the compound `CCOC(=O)c1cc(C(=O)c2cc(OC)c(OC)c(OC)c2)n2ccc(-c3cc[n+](CC(=O)c4cc(OC)c(OC)c(OC)c4)cc3)cc12`, the GI50 in the experiment with A549 NSCLC is 3.29 µM; with HCT-116 colon, 1.72 µM; with A498 renal, 1.96 µM; with TK-10 renal, 1.79 µM; in the experiment on HT29 colon, 1.83 µM; in the experiment on PC-3 prostate, 2.61 µM. In addition, the values for the GI50 in the experiment on HS 578T breast and with DU-145 prostate were 1.74 µM and 1.8 µM, respectively. Also, the TGI was 6.29 µM in the experiment with A549 NSCLC; 3.5 µM in the experiment with HCT-116 colon; 3.85 µM in the experiment on A498 renal; 3.5 µM with TK-10 renal; 3.68 µM in the experiment on HT29 colon; 8.12 µM in the experiment with PC-3 prostate. In addition, the TGI stood at 4.29 µM in the experiment on HS 578T breast and 3.39 µM in the experiment with DU-145 prostate.

With `FC(F)(F)c1nc(Br)[nH]c1C(F)(F)F`, the TGI in the experiment with A549 NSCLC, with HCT-116 colon, in the experiment on CAKI-1 renal, with TK-10 renal, in the experiment on HT29 colon and with M14 melanoma was over 100 µM in each case.

For the compound `C=C1C(C(=O)O)C1C(=O)O` (stereo unspecified), the TGI with A549 NSCLC, in the experiment on HCT-116 colon, with A498 renal, in the experiment with CAKI-1 renal, in the experiment on TK-10 renal and in the experiment on HT29 colon was over 100 µM throughout. In the experiment with M14 melanoma, this compound registered a TGI of over 100 µM.

For `Cc1ccc2c(c1)C(O)(c1ccccc1)CCS2` (stereo unspecified), the TGI with A549 NSCLC was over 100 µM; with HCT-116 colon it was 42.5 µM; in the experiment on CAKI-1 renal, 53.6 µM; in the experiment with TK-10 renal, 78.6 µM; with HT29 colon it was 66 µM; in the experiment with PC-3 prostate it was over 100 µM. The results for the TGI in the experiment with M14 melanoma, in the experiment with HS 578T breast and in the experiment with DU-145 prostate were 66.9 µM, over 100 µM and over 100 µM, respectively.
